Data set [1] deals with RAW264.7. The experiment in a line: Cytotoxicity against mouse RAW264.7 cells assessed as reduction in cell viability at 100 uM measured after 24 hrs by CCK8 assay. In kind it is toxicity, cell-based. The following applies: raw264.7, 24 h.
Data set [2] concerns RAW264.7. The experiment in a line: Antiinflammatory activity in mouse RAW264.7 cells assessed as reduction in LPS-induced IL-6 production pre-incubated for 2 hrs followed by LPS stimulation measured after 24 hrs by Griess method. The conditions noted are these: dose 5-40 µM, time 26.0 hrs. In kind it is functional, cell-based. In general terms: Nitrite, measured by Griess reagent, commonly stands in for NO production.

Data set [3] has as its system RAW264.7. As to the kind of experiment: Antiinflammatory activity in mouse RAW264.7 cells assessed as reduction in LPS-induced NO production pre-incubated for 2 hrs followed by LPS stimulation measured after 24 hrs by Griess method. In kind it is functional, cell-based.
Data set [4] deals with RAW264.7. The experiment in a line: Antiinflammatory activity in mouse RAW264.7 cells assessed as reduction in LPS-induced TNF-alpha production pre-incubated for 2 hrs followed by LPS stimulation measured after 24 hrs by Griess method. In kind it is functional, cell-based. The following applies: dose 5-40 µM, time 26.0 hrs.
The test system of data set [5] is RAW264.7. As to the kind of experiment: Antiinflammatory activity against mouse RAW264.7 cells assessed as inhibition of LPS-induced iNOS expression at 10 uM pre-incubated for 2 hrs followed by LPS stimulation measured after 24 hrs by western blot analysis. In kind it is functional, cell-based. The conditions noted are these: time 26.0 hrs.
The test system of data set [6] is RAW264.7. The experiment in a line: Antiinflammatory activity against mouse RAW264.7 cells assessed as inhibition of LPS-induced NF-kappaB/p65 expression at 10 to 40 uM pre-incubated for 2 hrs followed by LPS stimulation measured after 24 hrs by western blot analysis. In kind it is functional, cell-based. The following applies: dose 10-40 µM, time 26.0 hrs.

The text below walks through data of ChEMBL document CHEMBL5252599, “Euphohelides A-C, ent-Abietane-Type Norditerpene Lactones from Euphorbia helioscopia and Their Anti-Inflammatory Activities” (J Nat Prod, 2023).

Calls of active or inactive are those of the source. The calls are words filed in the database; no cut-off is given here.

Consider `CC1=C2C=C3CC[C@@H]4C(C)(C)[C@@H](O)CC[C@@]4(C)[C@@H]3C[C@H]2OC1=O` [HELIOSCOPINOLIDE B], for which the Activity result in data set [1] is given as “Non-Toxic”.
The term IC50 denotes the concentration that inhibits the measured activity by half. With `CC1=C2C=C3CC[C@@H]4C(C)(C)C(=O)[C@H](O)[C@@]4(C)[C@@H]3C[C@H]2OC1=O`, the Activity result is “Dose-Dependent Effect” in data set [2], “Non-Toxic” in data set [1] and “Dose-Dependent Effect” in data set [4]. Moreover, the concentration for half-maximal inhibition (IC50) in data set [3] was found to be 33 µM. In addition, the outcome in data set [5] and in data set [6] was Active.
For the compound `CC1=C2C=C3CC[C@@H]4C(C)(C)[C@H](O)C(=O)C[C@@]4(C)[C@@H]3C[C@H]2OC1=O`, the Activity entry in data set [1] is “Non-Toxic”. Further, in data set [3], the IC50 came to 33.8 µM.
For `CC1=C2C=C3CC[C@@H]4C(C)(C)OC(=O)[C@@]4(C)[C@@H]3C[C@H]2OC1=O`, the Activity result in data set [1] is “Non-Toxic”.
As for `CC1=C2C=C3CC[C@@H]4C(C)(C)[C@H](O)[C@H](O)C[C@@]4(C)[C@@H]3C[C@H]2OC1=O`, the Activity result in data set [1] is “Non-Toxic”.
Still for that read-out and setting: as for `CC1=C2C=C3CC[C@@H]4C(C)(C)C(=O)CC[C@@]4(C)[C@]3(O)C[C@H]2OC1=O`, the entry is “Non-Toxic”.
The same measure, in the same setting: then `CC1=C2C=C3CC[C@@H]4C(C)(C)OC(=O)C[C@@]4(C)[C@@H]3C[C@H]2OC1=O`, with “Non-Toxic”; and `CC1=C2C=C3CC[C@@H]4C(C)(C)C(=O)C(O)=C[C@@]4(C)[C@@H]3C[C@H]2OC1=O`, with “Non-Toxic”.
For the compound `CC1=C2C(=O)C3=C(C[C@H]2OC1=O)[C@]1(C)CC[C@@H](O)C(C)(CO)[C@H]1CC3` (some centres not stated), in data set [1], the Activity result is “Non-Toxic”.
The same measure, in the same setting: as for `CC1=C2C=C3CC[C@@H]4C(C)(C)[C@@H](O)CC[C@@]4(C)[C@]3(O)C[C@H]2OC1=O`, the entry is “Non-Toxic”; as for `CC1=C2C=C3CC[C@@H]4C(C)(C)[C@H](O)CC[C@@]4(C)[C@@H]3C[C@H]2OC1=O` [HELIOSCOPINOLIDE A], “Non-Toxic”.
